The experiment deals with T1, hNav1.4 (human skeletal muscle sodium channel) (Homo sapiens, UniProt P35499).
T1 construct: gene SCN4A; alpha subunit permanently transfected in HEK293 cells; no beta subunit mentioned
Kind of experiment: whole-cell patch clamp, sodium current in HEK293. Type of experiment: cell-based. The note with it: read-out: IC50 (μM) / 50 Hz, hp - 90 mV. From the text: whole-cell patch clamp, sodium current in HEK293 on hNav1.4 (human skeletal muscle sodium channel)
Background: The patch-clamp technique gives a direct electrical read-out from membranes.

Read-outs that look alike come from different tables or passages of the source.

T1 sequence (P35499 whole entry): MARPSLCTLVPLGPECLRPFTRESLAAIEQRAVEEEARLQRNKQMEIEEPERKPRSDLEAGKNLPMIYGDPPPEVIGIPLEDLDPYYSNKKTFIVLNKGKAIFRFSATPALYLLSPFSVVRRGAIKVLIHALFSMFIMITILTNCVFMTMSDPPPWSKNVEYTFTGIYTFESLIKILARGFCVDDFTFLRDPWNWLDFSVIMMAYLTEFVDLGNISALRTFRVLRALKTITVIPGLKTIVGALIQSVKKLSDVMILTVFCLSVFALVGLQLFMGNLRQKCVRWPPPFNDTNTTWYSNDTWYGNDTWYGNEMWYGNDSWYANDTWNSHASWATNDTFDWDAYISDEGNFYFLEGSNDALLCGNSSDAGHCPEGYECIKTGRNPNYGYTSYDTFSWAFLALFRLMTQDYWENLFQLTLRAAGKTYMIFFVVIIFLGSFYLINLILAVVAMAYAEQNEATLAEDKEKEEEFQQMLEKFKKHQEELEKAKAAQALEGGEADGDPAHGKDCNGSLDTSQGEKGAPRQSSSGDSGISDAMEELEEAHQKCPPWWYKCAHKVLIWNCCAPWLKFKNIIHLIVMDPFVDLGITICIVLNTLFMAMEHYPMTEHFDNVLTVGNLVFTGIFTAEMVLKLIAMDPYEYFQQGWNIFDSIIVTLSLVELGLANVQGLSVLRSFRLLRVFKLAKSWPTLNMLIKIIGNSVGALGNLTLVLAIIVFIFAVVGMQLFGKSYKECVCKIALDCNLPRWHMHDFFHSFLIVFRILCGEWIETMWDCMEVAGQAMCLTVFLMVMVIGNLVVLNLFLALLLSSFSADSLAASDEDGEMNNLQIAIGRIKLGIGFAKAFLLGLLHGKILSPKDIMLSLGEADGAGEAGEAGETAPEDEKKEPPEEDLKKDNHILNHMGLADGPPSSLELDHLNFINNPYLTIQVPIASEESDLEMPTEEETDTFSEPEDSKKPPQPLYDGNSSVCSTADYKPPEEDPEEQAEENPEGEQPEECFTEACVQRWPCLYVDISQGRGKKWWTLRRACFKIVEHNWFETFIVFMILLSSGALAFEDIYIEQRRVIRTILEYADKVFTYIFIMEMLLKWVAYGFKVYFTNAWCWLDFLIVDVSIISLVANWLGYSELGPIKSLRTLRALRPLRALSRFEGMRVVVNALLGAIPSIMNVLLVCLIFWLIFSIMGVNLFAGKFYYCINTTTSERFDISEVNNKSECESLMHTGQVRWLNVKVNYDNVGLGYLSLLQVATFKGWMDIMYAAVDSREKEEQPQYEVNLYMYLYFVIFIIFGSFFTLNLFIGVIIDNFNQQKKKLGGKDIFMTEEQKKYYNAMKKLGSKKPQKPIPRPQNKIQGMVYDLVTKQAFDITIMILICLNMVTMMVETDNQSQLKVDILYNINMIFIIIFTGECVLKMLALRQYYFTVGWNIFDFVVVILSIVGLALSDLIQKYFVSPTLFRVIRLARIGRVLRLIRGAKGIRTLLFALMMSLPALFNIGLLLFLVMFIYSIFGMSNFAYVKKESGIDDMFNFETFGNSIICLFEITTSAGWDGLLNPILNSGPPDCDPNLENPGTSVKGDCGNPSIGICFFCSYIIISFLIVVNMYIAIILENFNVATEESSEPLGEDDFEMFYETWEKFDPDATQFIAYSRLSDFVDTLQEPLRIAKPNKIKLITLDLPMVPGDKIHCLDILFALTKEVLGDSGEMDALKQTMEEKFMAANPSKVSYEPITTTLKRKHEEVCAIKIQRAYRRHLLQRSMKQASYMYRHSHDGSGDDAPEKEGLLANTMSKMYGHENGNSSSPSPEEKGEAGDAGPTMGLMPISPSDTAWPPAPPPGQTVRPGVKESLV

Regarding `Nc1nc2ccc(OC(F)(F)F)cc2s1` [Riluzole], the IC50 is roughly 0.9 µM. Still for that read-out and setting: next, `Cc1cccc(C)c1OCC(C)N` (stereo not shown) [Mexiletine]: roughly 20 µM. Regarding Lubeluzole, where the note is “holding potential -90 mV, 5 ms pulses to -30 mV at 50 Hz (myotonia-like), tonic + use-dependent block, read by eye from curve, 20-22 °C, pH 7.4”, the IC50 is roughly 0.3 µM. Turning to `NC(=O)N1c2ccccc2C=Cc2ccccc21` [Carbamazepine], the IC50 is roughly 100 µM. On to `CCCNCC(O)COc1ccccc1C(=O)CCc1ccccc1` (stereo not shown) [Propafenone], for which the IC50 was roughly 1.5 µM. Same read-out and setting: next, `NC(=O)N1c2ccccc2C2OC2c2ccccc21` (stereo not shown) [epo-CBZ]: roughly 70 µM.

With `O=C(NCC1CCCCN1)c1cc(OCC(F)(F)F)ccc1OCC(F)(F)F` (stereo not shown) [Flecainide], the IC50 is roughly 4 µM.

The record behind these values is paper PMC4004800, “Preclinical evaluation of marketed sodium channel blockers in a rat model of myotonia discloses promising antimyotonic drugs” (Experimental Neurology, 2014).
